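A five-concentration, 48-hour dose response in 96-well plates underlies each endpoint, interpolated linearly between surrounding concentrations. Abbreviation: GI50, concentration required for 50% inhibition of growth.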 Activity calls are given as the source filed them. Rule as the data show it: active = GI50 up to about 1.1 µM and inactive = higher.
Experiments:
Assay in all cases: NCI tumour cell line growth inhibition, 48 h
786-0 = test system: 786-0
A498 = test system: A498
A549 = test system: A549
ACHN = test system: ACHN
BT-549 = test system: BT-549
CAKI-1 = test system: CAKI-1
CCRF-CEM = test system: CCRF-CEM
COLO 205 = test system: COLO 205
DU-145 = test system: DU-145
EKVX = test system: EKVX
HCC 2998 = test system: HCC 2998
HCT-116 = test system: HCT-116
HCT-15 = test system: HCT-15
HL-60 = test system: HL-60
HOP-62 = test system: HOP-62
HOP-92 = test system: HOP-92
HT-29 = test system: HT-29
Hs-578T = test system: Hs-578T
KM12 = test system: KM12
LOX IMVI = test system: LOX IMVI
M14 = test system: M14
MCF7 = test system: MCF7
MDA-MB-231 = test system: MDA-MB-231
MDA-MB-435 = test system: MDA-MB-435
MDA-N = test system: MDA-N
MOLT-4 = test system: MOLT-4
Malme-3M = test system: Malme-3M
NCI-H226 = test system: NCI-H226
NCI-H460 = test system: NCI-H460
NCI/ADR-RES = test system: NCI/ADR-RES
OVCAR-3 = test system: OVCAR-3
OVCAR-4 = test system: OVCAR-4
OVCAR-5 = test system: OVCAR-5
OVCAR-8 = test system: OVCAR-8
PC-3 = test system: PC-3
RPMI-8226 = test system: RPMI-8226
RXF 393 = test system: RXF 393
SF-268 = test system: SF-268
SF-295 = test system: SF-295
SF-539 = test system: SF-539
SK-MEL-28 = test system: SK-MEL-28
SK-MEL-5 = test system: SK-MEL-5
SK-OV-3 = test system: SK-OV-3
SN12C = test system: SN12C
SNB-19 = test system: SNB-19
SNB-75 = test system: SNB-75
SR = test system: SR
T47D = test system: T47D
TK-10 = test system: TK-10
U-251 = test system: U-251
UACC-257 = test system: UACC-257
UACC-62 = test system: UACC-62
IGROV-1 = test system: IGROV-1
K562 = test system: K562
NCI-H23 = test system: NCI-H23
NCI-H522 = test system: NCI-H522
SK-MEL-2 = test system: SK-MEL-2
SW-620 = test system: SW-620
UO-31 = test system: UO-31

SMILES: O=Cc1ccc(Oc2c3ccccc3nc3ccccc23)cc1
- GI50 (786-0): 2.32 µM (inactive)
- GI50 (A498): 0.869 µM (active)
- GI50 (A549): 18.8 µM (inactive)
- GI50 (ACHN): 3.61 µM (inactive)
- GI50 (BT-549): 14.8 µM (inactive)
- GI50 (CAKI-1): 7.05 µM (inactive)
- GI50 (CCRF-CEM): 2.71 µM (inactive)
- GI50 (COLO 205): 3.42 µM (inactive)
- GI50 (DU-145): 3.84 µM (inactive)
- GI50 (EKVX): 17.7 µM (inactive)
- GI50 (HCC 2998): 14.8 µM (inactive)
- GI50 (HCT-116): 2.14 µM (inactive)
- GI50 (HCT-15): 4.16 µM
- GI50 (HL-60): < 0.01 µM (active)
- GI50 (HOP-62): 14.4 µM (inactive)
- GI50 (HOP-92): 4.74 µM (inactive)
- GI50 (HT-29): 2.07 µM (inactive)
- GI50 (Hs-578T): 2.53 µM (inactive)
- GI50 (KM12): 11.1 µM (inactive)
- GI50 (LOX IMVI): 2.9 µM (inactive)
- GI50 (M14): 3.44 µM (inactive)
- GI50 (MCF7): 4.42 µM (inactive)
- GI50 (MDA-MB-231): 2.29 µM (inactive)
- GI50 (MDA-MB-435): 2.45 µM (inactive)
- GI50 (MDA-N): 3.51 µM (inactive)
- GI50 (MOLT-4): < 0.01 µM (active)
- GI50 (Malme-3M): 11.8 µM (inactive)
- GI50 (NCI-H226): 4.03 µM (inactive)
- GI50 (NCI-H460): 16 µM (inactive)
- GI50 (NCI/ADR-RES): 10.2 µM (inactive)
- GI50 (OVCAR-3): 10.9 µM (inactive)
- GI50 (OVCAR-4): 4.63 µM (inactive)
- GI50 (OVCAR-5): 4.29 µM (inactive)
- GI50 (OVCAR-8): 5.75 µM (inactive)
- GI50 (PC-3): 6.34 µM (inactive)
- GI50 (RPMI-8226): 2.39 µM (inactive)
- GI50 (RXF 393): 7.98 µM (inactive)
- GI50 (SF-268): 4.5 µM (inactive)
- GI50 (SF-295): 19.6 µM (inactive)
- GI50 (SF-539): 1.76 µM (inactive)
- GI50 (SK-MEL-28): 12.6 µM (inactive)
- GI50 (SK-MEL-5): 11.5 µM (inactive)
- GI50 (SK-OV-3): 4.63 µM (inactive)
- GI50 (SN12C): 2.85 µM (inactive)
- GI50 (SNB-19): 16.4 µM (inactive)
- GI50 (SNB-75): 15.5 µM (inactive)
- GI50 (SR): 0.053 µM (active)
- GI50 (T47D): 3.66 µM (inactive)
- GI50 (TK-10): 6.03 µM (inactive)
- GI50 (U-251): 5.27 µM (inactive)
- GI50 (UACC-257): 0.346 µM (active)
- GI50 (UACC-62): 0.46 µM (active)

SMILES: C[C@@H]1C[C@H]2OC(=O)[C@@]3(C)CCC[C@@](C)([C@@H]23)[C@@]1(O)CCc1ccoc1
- GI50 (786-0): > 100 µM (inactive)
- GI50 (A498): > 100 µM (inactive)
- GI50 (A549): > 100 µM (inactive)
- GI50 (ACHN): > 100 µM (inactive)
- GI50 (BT-549): > 49.8 µM (inactive)
- GI50 (CAKI-1): > 100 µM (inactive)
- GI50 (CCRF-CEM): 74.5 µM (inactive)
- GI50 (COLO 205): > 100 µM (inactive)
- GI50 (DU-145): > 100 µM (inactive)
- GI50 (EKVX): > 100 µM (inactive)
- GI50 (HCC 2998): > 100 µM (inactive)
- GI50 (HCT-116): > 87.7 µM (inactive)
- GI50 (HCT-15): 79.3 µM
- GI50 (HL-60): 29.6 µM (inactive)
- GI50 (HOP-62): > 100 µM (inactive)
- GI50 (HOP-92): > 100 µM (inactive)
- GI50 (HT-29): > 95.7 µM (inactive)
- GI50 (Hs-578T): > 100 µM (inactive)
- GI50 (IGROV-1): > 100 µM (inactive)
- GI50 (K562): 42.2 µM (inactive)
- GI50 (KM12): > 100 µM (inactive)
- GI50 (LOX IMVI): > 100 µM (inactive)
- GI50 (M14): > 100 µM (inactive)
- GI50 (MCF7): > 80.2 µM (inactive)
- GI50 (MDA-MB-231): > 100 µM (inactive)
- GI50 (MDA-MB-435): > 100 µM (inactive)
- GI50 (MDA-N): > 100 µM (inactive)
- GI50 (MOLT-4): 38 µM (inactive)
- GI50 (NCI-H226): > 61.2 µM (inactive)
- GI50 (NCI-H23): > 77.8 µM (inactive)
- GI50 (NCI-H460): 56.9 µM (inactive)
- GI50 (NCI-H522): > 61.8 µM (inactive)
- GI50 (NCI/ADR-RES): > 100 µM (inactive)
- GI50 (OVCAR-3): > 100 µM (inactive)
- GI50 (OVCAR-4): > 64.9 µM (inactive)
- GI50 (OVCAR-5): > 100 µM (inactive)
- GI50 (OVCAR-8): > 100 µM (inactive)
- GI50 (PC-3): > 100 µM (inactive)
- GI50 (RPMI-8226): 45.1 µM (inactive)
- GI50 (RXF 393): > 100 µM (inactive)
- GI50 (SF-268): > 100 µM (inactive)
- GI50 (SF-295): > 100 µM (inactive)
- GI50 (SF-539): > 100 µM (inactive)
- GI50 (SK-MEL-28): > 100 µM (inactive)
- GI50 (SK-MEL-2): > 100 µM (inactive)
- GI50 (SK-MEL-5): 40.6 µM (inactive)
- GI50 (SK-OV-3): > 100 µM (inactive)
- GI50 (SN12C): > 100 µM (inactive)
- GI50 (SNB-19): > 100 µM (inactive)
- GI50 (SNB-75): > 100 µM (inactive)
- GI50 (SR): 44.5 µM (inactive)
- GI50 (SW-620): > 100 µM (inactive)
- GI50 (T47D): > 100 µM (inactive)
- GI50 (TK-10): > 100 µM (inactive)
- GI50 (U-251): > 100 µM (inactive)
- GI50 (UACC-257): > 95.7 µM (inactive)
- GI50 (UACC-62): > 62.4 µM (inactive)
- GI50 (UO-31): > 59.3 µM (inactive)
